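Protocol summary: plate cells (96-well), add compound at 5 concentrations, incubate 48 h, interpolate endpoints linearly. TGI marks complete inhibition of growth.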
Key:
Experiment in all cases: NCI anticancer screen, dose series, 48 h
RPMI-8226 leukemia = tested on: RPMI-8226 leukemia
UACC-257 melanoma = tested on: UACC-257 melanoma
SF-295 CNS = tested on: SF-295 CNS
NCI-H226 lung = tested on: NCI-H226 lung
CAKI-1 renal = tested on: CAKI-1 renal
MALME-3M melanoma = tested on: MALME-3M melanoma
MOLT-4 leukemia = tested on: MOLT-4 leukemia
M14 melanoma = tested on: M14 melanoma
HOP-92 NSCLC = tested on: HOP-92 NSCLC
COLO 205 colon = tested on: COLO 205 colon
KM12 colon = tested on: KM12 colon
HOP-62 NSCLC = tested on: HOP-62 NSCLC
UO-31 renal = tested on: UO-31 renal
NCI-H23 lung = tested on: NCI-H23 lung
A498 renal = tested on: A498 renal
HL-60(TB) leukemia = tested on: HL-60(TB) leukemia
NCI-H460 lung = tested on: NCI-H460 lung
DU-145 prostate = tested on: DU-145 prostate
OVCAR-5 ovarian = tested on: OVCAR-5 ovarian
786-0 renal = tested on: 786-0 renal
SF-268 CNS = tested on: SF-268 CNS
MCF7 breast = tested on: MCF7 breast
EKVX NSCLC = tested on: EKVX NSCLC
SN12C renal = tested on: SN12C renal
T-47D breast = tested on: T-47D breast
HS 578T breast = tested on: HS 578T breast
NCI/ADR-RES ovarian = tested on: NCI/ADR-RES ovarian
SK-MEL-5 melanoma = tested on: SK-MEL-5 melanoma
TK-10 renal = tested on: TK-10 renal
A549 NSCLC = tested on: A549 NSCLC
NCI-H522 lung = tested on: NCI-H522 lung
HCC-2998 colon = tested on: HCC-2998 colon
OVCAR-4 ovarian = tested on: OVCAR-4 ovarian
U251 CNS = tested on: U251 CNS
OVCAR-3 ovarian = tested on: OVCAR-3 ovarian
K-562 leukemia = tested on: K-562 leukemia
SF-539 CNS = tested on: SF-539 CNS
SK-MEL-28 melanoma = tested on: SK-MEL-28 melanoma
SR leukemia = tested on: SR leukemia
PC-3 prostate = tested on: PC-3 prostate
LOX IMVI melanoma = tested on: LOX IMVI melanoma
HCT-15 colon = tested on: HCT-15 colon
SNB-75 CNS = tested on: SNB-75 CNS
HCT-116 colon = tested on: HCT-116 colon
SK-OV-3 ovarian = tested on: SK-OV-3 ovarian
SK-MEL-2 melanoma = tested on: SK-MEL-2 melanoma
OVCAR-8 ovarian = tested on: OVCAR-8 ovarian
BT-549 breast = tested on: BT-549 breast
IGROV1 ovarian = tested on: IGROV1 ovarian
UACC-62 melanoma = tested on: UACC-62 melanoma
MDA-MB-231 breast = tested on: MDA-MB-231 breast
HT29 colon = tested on: HT29 colon
SNB-19 CNS = tested on: SNB-19 CNS
CCRF-CEM leukemia = tested on: CCRF-CEM leukemia
SW-620 colon = tested on: SW-620 colon
MDA-MB-435 = tested on: MDA-MB-435
ACHN renal = tested on: ACHN renal
MDA-N = tested on: MDA-N

COc1ccc(C(c2ccc(OC)cc2)N2C(=O)CCC2C(=O)O)cc1 (centres undefined) showed a TGI (RPMI-8226 leukemia) greater than 100 µM, a TGI (UACC-257 melanoma) greater than 100 µM and a TGI (SF-295 CNS) greater than 100 µM. For the same compound, the TGI (NCI-H226 lung) was greater than 100 µM, the TGI (CAKI-1 renal) was greater than 100 µM and the TGI (MALME-3M melanoma) was greater than 100 µM. For the same compound, the TGI (MOLT-4 leukemia) was greater than 100 µM, the TGI (M14 melanoma) was greater than 100 µM and the TGI (HOP-92 NSCLC) was greater than 100 µM. The TGI (COLO 205 colon) was greater than 100 µM, the TGI (KM12 colon) was greater than 100 µM and the TGI (HOP-62 NSCLC) was greater than 100 µM. It also gave a TGI (UO-31 renal) greater than 100 µM, a TGI (NCI-H23 lung) greater than 100 µM and a TGI (A498 renal) greater than 100 µM. It also gave a TGI (HL-60(TB) leukemia) greater than 100 µM, a TGI (NCI-H460 lung) greater than 100 µM and a TGI (DU-145 prostate) greater than 100 µM. It also gave a TGI (OVCAR-5 ovarian) greater than 100 µM, a TGI (786-0 renal) greater than 100 µM and a TGI (SF-268 CNS) greater than 100 µM. For the same compound, the TGI (MCF7 breast) was greater than 100 µM, the TGI (EKVX NSCLC) was greater than 100 µM and the TGI (SN12C renal) was greater than 100 µM. The TGI (T-47D breast) was greater than 100 µM, the TGI (HS 578T breast) was greater than 100 µM and the TGI (NCI/ADR-RES ovarian) was greater than 100 µM. It also gave a TGI (SK-MEL-5 melanoma) greater than 100 µM, a TGI (TK-10 renal) greater than 100 µM and a TGI (A549 NSCLC) greater than 100 µM. For the same compound, the TGI (NCI-H522 lung) was greater than 100 µM, the TGI (HCC-2998 colon) was greater than 100 µM and the TGI (OVCAR-4 ovarian) was greater than 100 µM. The TGI (U251 CNS) was greater than 100 µM, the TGI (OVCAR-3 ovarian) was greater than 100 µM and the TGI (K-562 leukemia) was greater than 100 µM. For the same compound, the TGI (SF-539 CNS) was greater than 100 µM, the TGI (SK-MEL-28 melanoma) was greater than 100 µM and the TGI (SR leukemia) was greater than 100 µM. It also gave a TGI (PC-3 prostate) greater than 100 µM, a TGI (LOX IMVI melanoma) greater than 100 µM and a TGI (HCT-15 colon) greater than 100 µM. The TGI (SNB-75 CNS) was greater than 100 µM, the TGI (HCT-116 colon) was greater than 100 µM and the TGI (SK-OV-3 ovarian) was greater than 100 µM. It also gave a TGI (SK-MEL-2 melanoma) greater than 100 µM, a TGI (OVCAR-8 ovarian) greater than 100 µM and a TGI (BT-549 breast) greater than 100 µM. The TGI (IGROV1 ovarian) was greater than 100 µM, the TGI (UACC-62 melanoma) was greater than 100 µM and the TGI (MDA-MB-231 breast) was greater than 100 µM. For the same compound, the TGI (HT29 colon) was greater than 100 µM, the TGI (SNB-19 CNS) was greater than 100 µM and the TGI (CCRF-CEM leukemia) was greater than 100 µM. The TGI (SW-620 colon) was greater than 100 µM, the TGI (MDA-MB-435) was greater than 100 µM and the TGI (ACHN renal) was greater than 100 µM. It also gave a TGI (MDA-N) greater than 100 µM.

O=[N+]([O-])c1ccc(NC(=S)N=Nc2c(O)[nH]c3ccccc23)cc1 showed a TGI (RPMI-8226 leukemia) greater than 100 µM, a TGI (UACC-257 melanoma) of 47.3 µM and a TGI (SF-295 CNS) of 21.5 µM. It also gave a TGI (CAKI-1 renal) of 21.7 µM, a TGI (MALME-3M melanoma) of 21.9 µM and a TGI (MOLT-4 leukemia) of 19.8 µM. It also gave a TGI (M14 melanoma) of 25.7 µM, a TGI (HOP-92 NSCLC) of 30.7 µM and a TGI (COLO 205 colon) of 26.3 µM. The TGI (KM12 colon) was 78.2 µM, the TGI (HOP-62 NSCLC) was 18.1 µM and the TGI (UO-31 renal) was 19.3 µM. It also gave a TGI (NCI-H23 lung) of 54.5 µM, a TGI (HL-60(TB) leukemia) greater than 100 µM and a TGI (NCI-H460 lung) of 29.2 µM. It also gave a TGI (DU-145 prostate) of 29.5 µM, a TGI (OVCAR-5 ovarian) of 43.3 µM and a TGI (786-0 renal) of 18.4 µM. For the same compound, the TGI (SF-268 CNS) was 37.9 µM, the TGI (MCF7 breast) was 38.1 µM and the TGI (EKVX NSCLC) was 43 µM. It also gave a TGI (SN12C renal) of 63 µM, a TGI (T-47D breast) of 37.7 µM and a TGI (HS 578T breast) of 59.8 µM. The TGI (NCI/ADR-RES ovarian) was 23.7 µM, the TGI (SK-MEL-5 melanoma) was 24 µM and the TGI (A549 NSCLC) was 21.5 µM. For the same compound, the TGI (NCI-H522 lung) was 34.9 µM, the TGI (HCC-2998 colon) was 26.7 µM and the TGI (OVCAR-4 ovarian) was 79.6 µM. For the same compound, the TGI (U251 CNS) was 38.7 µM, the TGI (OVCAR-3 ovarian) was 28.1 µM and the TGI (K-562 leukemia) was greater than 100 µM. For the same compound, the TGI (SF-539 CNS) was 31.1 µM, the TGI (SK-MEL-28 melanoma) was 36.9 µM and the TGI (SR leukemia) was greater than 100 µM. It also gave a TGI (PC-3 prostate) of 16.6 µM, a TGI (LOX IMVI melanoma) of 36.3 µM and a TGI (HCT-15 colon) of 16.7 µM. For the same compound, the TGI (SNB-75 CNS) was 31.4 µM, the TGI (HCT-116 colon) was 18.6 µM and the TGI (SK-OV-3 ovarian) was 14.8 µM. It also gave a TGI (SK-MEL-2 melanoma) of 23.3 µM, a TGI (OVCAR-8 ovarian) of 3.16 µM and a TGI (BT-549 breast) of 55.4 µM. The TGI (IGROV1 ovarian) was 29.3 µM, the TGI (UACC-62 melanoma) was 24 µM and the TGI (MDA-MB-231 breast) was 13.9 µM. For the same compound, the TGI (HT29 colon) was greater than 100 µM, the TGI (SNB-19 CNS) was 36.4 µM and the TGI (CCRF-CEM leukemia) was greater than 100 µM. For the same compound, the TGI (SW-620 colon) was 34.2 µM, the TGI (MDA-MB-435) was 53.7 µM and the TGI (ACHN renal) was 21.1 µM. It also gave a TGI (MDA-N) of 30.2 µM.

CCOC(=O)C1=C(C#N)S(=O)(=O)c2c(oc(C)c2C)N1 gave a TGI (RPMI-8226 leukemia) greater than 100 µM, a TGI (UACC-257 melanoma) greater than 100 µM and a TGI (SF-295 CNS) greater than 100 µM. It also gave a TGI (NCI-H226 lung) greater than 100 µM, a TGI (CAKI-1 renal) greater than 100 µM and a TGI (MALME-3M melanoma) greater than 100 µM. For the same compound, the TGI (MOLT-4 leukemia) was greater than 100 µM, the TGI (M14 melanoma) was greater than 100 µM and the TGI (HOP-92 NSCLC) was greater than 100 µM. It also gave a TGI (COLO 205 colon) greater than 100 µM, a TGI (KM12 colon) greater than 100 µM and a TGI (HOP-62 NSCLC) greater than 100 µM. For the same compound, the TGI (UO-31 renal) was greater than 100 µM, the TGI (NCI-H23 lung) was greater than 100 µM and the TGI (A498 renal) was greater than 100 µM. It also gave a TGI (NCI-H460 lung) greater than 100 µM, a TGI (DU-145 prostate) greater than 100 µM and a TGI (OVCAR-5 ovarian) greater than 100 µM. For the same compound, the TGI (786-0 renal) was greater than 100 µM, the TGI (SF-268 CNS) was greater than 100 µM and the TGI (MCF7 breast) was greater than 100 µM. For the same compound, the TGI (EKVX NSCLC) was greater than 100 µM, the TGI (SN12C renal) was greater than 100 µM and the TGI (T-47D breast) was greater than 100 µM. It also gave a TGI (HS 578T breast) greater than 100 µM, a TGI (NCI/ADR-RES ovarian) greater than 100 µM and a TGI (SK-MEL-5 melanoma) greater than 100 µM. It also gave a TGI (TK-10 renal) greater than 100 µM, a TGI (A549 NSCLC) greater than 100 µM and a TGI (NCI-H522 lung) greater than 100 µM. For the same compound, the TGI (HCC-2998 colon) was greater than 100 µM, the TGI (OVCAR-4 ovarian) was greater than 100 µM and the TGI (U251 CNS) was greater than 100 µM. It also gave a TGI (OVCAR-3 ovarian) greater than 100 µM, a TGI (K-562 leukemia) greater than 100 µM and a TGI (SF-539 CNS) greater than 100 µM. It also gave a TGI (SK-MEL-28 melanoma) greater than 100 µM, a TGI (SR leukemia) greater than 100 µM and a TGI (PC-3 prostate) greater than 100 µM. For the same compound, the TGI (LOX IMVI melanoma) was greater than 100 µM, the TGI (HCT-15 colon) was greater than 100 µM and the TGI (SNB-75 CNS) was greater than 100 µM. For the same compound, the TGI (HCT-116 colon) was greater than 100 µM, the TGI (SK-OV-3 ovarian) was greater than 100 µM and the TGI (SK-MEL-2 melanoma) was greater than 100 µM. It also gave a TGI (OVCAR-8 ovarian) greater than 100 µM, a TGI (BT-549 breast) greater than 100 µM and a TGI (IGROV1 ovarian) greater than 100 µM. The TGI (UACC-62 melanoma) was greater than 100 µM, the TGI (MDA-MB-231 breast) was greater than 100 µM and the TGI (HT29 colon) was greater than 100 µM. It also gave a TGI (SNB-19 CNS) greater than 100 µM, a TGI (SW-620 colon) greater than 100 µM and a TGI (MDA-MB-435) greater than 100 µM. It also gave a TGI (ACHN renal) greater than 100 µM and a TGI (MDA-N) greater than 100 µM.

From PubChem BioAssay (NCI)
